Measurements taken from patent US12521415B2, “Accelerating repair of mucosal injury using gold(III) compounds” (University of Kentucky Research Foundation, priority 2020, dated 2026).

Legend:
[1] = tested on: normal colonocytes (NCM460); test: Mitochondrial uptake of AuPhos by gold content (graphite furnace atomic absorption spectroscopy) in NCM460; assay type: cell-based, human; conditions: normal colon epithelial cells (NCM460)
From the text: (§1) FIGS. 8A-8J present properties of AuPhos. FIG. 8A includes a chemical structure of AuPhos. FIG. 8B includes extrapolated AuPhos-induced OCR (complex I) in liver mitochondria. […] FIG. 8E provides weight change in AuPhos-treated mice over time. FIG. 8F presents stability of AuPhos in PBS and DMEM. FIG. 8G presents stability of AuPhos in PBS and DMEM. FIG. 8H includes an AuPhos-induced Heat map of DEG (left Panel), obtained using log 2(Fold Change) and p-Value <0.00001 thresholds in MDA-MB-231(107) cells (n=2), and the top six hits of KEGG analysis (right panel). FIG. 8I presents biodistribution and pharmacokinetics of AuPhos in different tissues; Colon, Small bowel, Lung, Kidney, Spleen, Liver, Heart and Blood after single dose (oral, 25 mg/kg) administration of AuPhos at 6 h, 12 h and 24 h. FIG. 8J presents biodistribution and pharmacokinetics of AuPhos in different tissues stool after single dose (oral, 25 mg/kg) administration of AuPhos at 6 h, 12 h and 24 h.
FIGS. 16A-16E illustrate the pharmacokinetics and effects of AuPhos on mitochondrial bioenergetics. FIG. 16A. Biodistribution and pharmacokinetics of AuPhos in different tissues; Colon, Small bowel, Spleen, Liver after a single intragastric (i.g.) gavage (25 mg/kg) with measurements of AuPhos tissue levels (graphite furnace atomic absorption spectroscopy) at times indicated. FIG. 16B. […]

MDA-MB-231 cells = test: Transcriptomics of global mRNA changes after AuPhos exposure; assay type: cell-based; conditions: 12 h exposure
From the text: as §1
(§2) This observation was mitochondrial complex I-driven when different substrates, i.e. pyruvate and succinate, were used to measure the OCR. Transcriptomics was used to study global changes in mRNA in response to a 12 h exposure of AuPhos to MDA-MB-231 cells (FIG. 8H).

[2] = Toxicity (weight change) in AuPhos-treated mice over time; assay type: in vivo, mouse
From the text: as §1, §2

colonic NCM460 cells = test: MitoSOX Red assay of mtROS (superoxide) production; assay type: cell-based, human
Procedure: FIG. 11A includes representative images showing AuPhos-induced (200 nM) mtROS (superoxide) production using MitoSOX Red assay.
Given the in vivo data in FIG. 10, it was determined if AuPhos increases ROS levels within mitochondria (mtROS). To examine this possibility, colonic NCM460 cells were cultured, treated with a positive control (Rotenone), AuPhos (200 nM) or AuPhos with PEG-SOD (negative control) and analyzed with MitoSOX Red (an indicator of mitochondrial superoxide). […] Studies in FIGS. 11C and 11D used human colonoids isolated from normal patients to examine effects of AuPhos on hydrogen peroxide (H2O2) production from normal and low-dose TNF-stimulated colonoids.

Question: What does the source list for `[Cl][Au]1([c]2ccccc2Cc2ccccn2)[P](c2ccccc2)(c2ccccc2)c2ccccc2[P]1(c1ccccc1)c1ccccc1` [AuPhos]?
Answer: mitochondrial localization (gold content) [1]: localizes in the mitochondria; differentially expressed genes (mRNA) (MDA-MB-231 cells): mitochondrial OXPHOS genes: MT-ND1-5, MT-CYB, MT-CO1-3, and MTATP6 were modulated; liver toxicity ([2]; mice, data not shown): not observed; toxicity in mice ([2]; over 20 days): no toxicity; AuPhos-induced mtROS production with PEG-SOD (colonic NCM460 cells; AuPhos 200 nM with PEG-SOD (negative control), NCM460): specifically inhibited with PEG-SOD; rise in mtROS production (colonic NCM460 cells; AuPhos 200 nM, NCM460 cells, MitoSOX Red): 45%
